{"source": "patent US20240285599A1", "about": "“Mature-Hepatocyte Transdifferentiation Suppressing Composition” (OSAKA UNIVERSITY, priority 2021, published 2024)", "system": "HuCCT1 cell xenograft", "assay": "Xenograft of NIK shRNA-introduced HuCCT1 cells in NOG mouse", "format": "in vivo", "conditions": "HuCCT1 cells with shRNA introduced by lentivirus", "protocol": "A histopathological slide was deparaffinized with xylene and ethanol. HE staining was performed with hematoxylin and eosin. In immunostaining, antigen activation was performed by heating in Target Retrieval Solution (Dako, USA), followed by blocking with bovine serum albumin and a reaction through use of a primary antibody at 4° C. overnight. A frozen section was dried at room temperature, and was blocked with BSA (Nacalai Tesque, Inc., Japan), followed by a reaction through use of a primary antibody in VECTASTAIN ABC Rabbit IgG Kit (Vector Laboratories, Inc., USA). DAB Substrate Kit (Vector Laboratories, Inc., USA) was used in a staining reaction. […] The number of Ki67-positive cells in a tumor was counted with ImageJ (Fiji). The immunostaining score of TRAF3 or NIK was calculated by multiplying a staining intensity (of from 0 to 3) by a stained area (%). Human ICC patients were grouped into two groups on the basis of the median immunostaining score of TRAF3 or NIK, and were evaluated for their disease-free survival (DFS) or overall survival (OS). […]\nFurther, the HuCCT1 cells were infected with negative control shRNA or NIK shRNA by using a lentivirus, and the infected cells were selected with puromycin. […] The measurement of the diameters of the tumors of the mice was started 3 weeks after the transplantation, and their tumor volumes were measured by the same method as that described above. […]", "data": [{"substance": "NIK shRNA: shRNA against NIK, SEQ ID NO: 1, introduced into HuCCT1 cells by a lentivirus (CCGGCUCAGGACUCACGUAGCAUUACUCGAGUAAUGCUACGUGAGUCCUGAGUUUUU)", "values": [{"measurement": "number of Ki67-positive cells in tumors versus negative control shRNA-introduced tumors", "setting": "FIG. 24B", "result": "significantly lower"}, {"measurement": "growth of xenografts derived from the HuCCT1 cells (tumor size)", "setting": "measured from day 21 after transplantation, FIG. 24A", "result": "significantly suppressed"}]}]}
